EPA's ToxValDB 9.5 (doi:10.2903/j.efsa.2010.1406)

Assays:
[1] = tested on: Rattus norvegicus
[2] = subchronic; duration: 90 days
[3] = subchronic, duration: 90 days, oral, diet

**Q.** With `Cc1cc(SC(=O)CC(C)C)c(C)o1` [2,5-Dimethyl-3-thioisovalerylfuran] as the compound, how does the NOEL ([1]; subchronic, duration: 90 days) read?
**A.** 0.73 mg/kg-day

**Q.** Which NOAEL [2] does the source give for `CSC(=O)c1ccco1` [2-Furancarbothioic acid, S-methyl ester] here?
**A.** 6.7 mg/kg-day

**Q.** For `CC(=O)SC1=C(C)OCC1` [2-Methyl-3-thioacetoxy-4,5-dihydrofuran], which NOEL ([1]; chronic, duration: 1 years, oral, diet) is on record?
**A.** 8.3 mg/kg-day

**Q.** Which NOAEL [1, 3] does the source give for `CC(=O)CC(C)SCc1ccco1` (centres undefined) [4-{[(Furan-2-yl)methyl]sulfanyl}pentan-2-one] here?
**A.** 3.76 mg/kg-day

**Q.** Which NOEL ([1]; subchronic, duration: 90 days) does the source give for `Cc1occc1SSSSc1ccoc1C` [Bis(2-methyl-3-furyl) tetrasulfide] here?
**A.** 0.56 mg/kg-day

**Q.** Which NOEL [1, 3] does the source give for `Cc1occc1SSc1ccoc1C` [Bis(2-methyl-3-furyl)disulfide] here?
**A.** 0.45 mg/kg-day

**Q.** For `CCOC(=O)CCSCc1ccco1` [Ethyl 3-(furfurylthio)propionate], which NOEL ([1]; subchronic, duration: 90 days) is on record?
**A.** 17 mg/kg-day

**Q.** With `Cc1cc(SSc2cc(C)oc2C)c(C)o1` [Furan, 3,3'-dithiobis[2,5-dimethyl-] as the compound, how does the NOEL [1, 3] read?
**A.** 0.45 mg/kg-day

**Q.** With `CCSC(C)=O` [S-Ethyl thiolacetate] as the compound, how does the NOAEL [2] read?
**A.** 6.7 mg/kg-day
